Assay results reported in PubChem BioAssay AID1963849 (Molecular Pharmacology Branch, DTP, NCI, 2024).

System: 299254-011-R-J1-PDC complex spheroid viability
Test: Anticancer human tumor 299254-011-R-J1-PDC patient-derived melanoma cell line growth inhibition [POLQ]
Details: for IC50: curve of first compound; for viability, T/C: stronger effect = lower value
Experimental: Multicellular complex tumor spheroid response to Polymerase (POL) inhibitors (novobiocin, ART-558, RP6685) in combination with a variety of drugs and investigational agents in selected tumor cell lines
The POL inhibitors (novobiocin, ART-558, and RP6685) were evaluated both individually and in combination with standard of care and investigational anticancer small molecules within a complex spheroid model of solid tumors. . Complex spheroids include a stromal component modeled by human endothelial cells (HUVEC) and fibroblasts modeled by human mesenchymal stem cells (MSCs). The concentration ranges selected for each drug and investigational agent were based upon clinically achievable concentrations if the clinical Cmax of the agent was known.
Compounds. The drugs and investigational agents: novobiocin (NSC847541), ART-558 (NSC835418), RP-6685 (NSC848927), peposertib (NSC802822), ceralasertib (NSC780249), elimusertib (NSC800525), camonsertib (NSC841442), AZD-1390 (NSC803789), olaparib (NSC753686), talazoparib (NSC767125), rucaparib (NSC756644), sotorasib (NSC818433), MRTX-1133 (NSC836407), SN-38 (NSC673596), topotecan (NSC609699), epotoside (NSC141540), doxorubicin (NSC123127), gemcitabine (NSC613327), 5-fluorouracil (NSC19893), paclitaxel (NSC125973), vemurafenib (NSC761431), MSA-2 (NSC828583), SN-011 (NSC837082), adavosertib (NSC754352), prexasertib (NSC758257), carboplatin (NSC241240) and oxaliplatin (NSC266046), were obtained from the National Cancer Institute (NCI) Developmental Therapeutics Program Chemical Repository (21). The FDA-approved anticancer drug set is available from the Developmental Therapeutics Program at https://dtp.cancer.gov/organization/dscb/obtaining/. […] The stock solutions were prepared in dimethyl sulfoxide (DMSO, Sigma-Aldrich, St. Louis, MO, cat. D2650), except for the platinum compounds which were prepared in saline (Quality Biological, Gaithersburg, MD, cat. 114-055-101), at 800-fold the tested concentration and stored at -70 degrees C prior to their use. All drugs and investigational agents were tested over a range starting from a high concentration at or near the clinical Cmax and decreasing in half-log increments. If the clinical Cmax for an agent had not been determined, the highest concentration tested was 10 microM, except for SN-38, which was tested at a high concentration of 1 microM.
Cell Culture. All cells were maintained in an incubator at 37 degrees C and 5% CO2 with 95% humidity. The PDC lines were cultured according to standard operating procedures established by the NCI PDMR (https://pdmr.cancer.gov). Table 3 of the manuscript, lists the cell lines along with the number of the three cell types plated to form the mct-spheroids and media for tumor cell growth. After thawing, all PDC lines, except 997537-175-T-J1-PDC and 415267-285-R-J2-PDC, were cultured in Matrigel-coated flasks prepared with a working solution of 1X Ham's F-12 nutrient mix, without supplementation (Thermo Fisher Scientific, cat. 11765054), 100 U/mL penicillin-streptomycin (Thermo Fisher Scientific, cat. 15140122), and 2.5% Matrigel (Corning Inc., Corning, NY, cat. 354248) for the first three passages. The two PDC lines 997537-175-T-J1-PDC and 415267-285-R-J2-PDC were cultured on uncoated flasks. The 857933-349-R-J2-PDC line was cultured in 6C/Colon 1B media containing advanced DMEM/F-12 (Thermo Fisher Scientific, cat. 12634028), 10 mM HEPES (Thermo Fisher Scientific, cat. 15630080), 1X GlutaMAX supplement (Thermo Fisher Scientific, cat. 35050061), 0.1 mg/mL primocin (InvivoGen, San Diego, CA, cat. ant-pm-2), 10% defined fetal bovine serum, heat inactivated (HyClone Laboratories Inc., Logan, UT, cat. SH30070.03HI), 50% L-WRN conditioned media (ATCC, cat. CRL-3276), 1.25 mM N-Acetyl-L-cysteine (Sigma-Aldrich, cat. A9165), 10 mM nicotinamide (Sigma-Aldrich, cat. N0636), 1X B-27 supplement (Thermo Fisher Scientific, cat. 17504044), 1X N-2 supplement (Thermo Fisher Scientific, cat. […]

[1] = second compound 0.0316 µM, first compound 0.0316 µM
[2] = second compound 0.0316 µM, first compound 0.1 µM
[3] = second compound 0.0316 µM, first compound 0.316 µM
[4] = second compound 0.0316 µM, first compound 1 µM
[5] = second compound 0.1 µM, first compound 0.0316 µM
[6] = second compound 0.1 µM, first compound 0.1 µM
[7] = second compound 0.1 µM, first compound 0.316 µM
[8] = second compound 0.1 µM, first compound 1 µM
[9] = second compound 0.316 µM, first compound 0.0316 µM
[10] = second compound 0.316 µM, first compound 0.1 µM
[11] = second compound 0.316 µM, first compound 0.316 µM
[12] = second compound 0.316 µM, first compound 1 µM
[13] = second compound 1 µM, first compound 0.0316 µM
[14] = second compound 1 µM, first compound 0.1 µM
[15] = second compound 1 µM, first compound 0.316 µM
[16] = second compound 1 µM, first compound 1 µM
[17] = second compound 3.16 µM, first compound 0.0316 µM
[18] = second compound 3.16 µM, first compound 0.1 µM
[19] = second compound 3.16 µM, first compound 0.316 µM
[20] = second compound 3.16 µM, first compound 1 µM
[21] = second compound 10 µM, first compound 0.0316 µM
[22] = second compound 10 µM, first compound 0.1 µM
[23] = second compound 10 µM, first compound 0.316 µM
[24] = second compound 10 µM, first compound 1 µM
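Also: spheroids exposed to drugs for one week before measurement.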
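For viability, T/C in this document: percent viability relative to DMSO vehicle control taken as 100%.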

For `CCc1c2c(nc3ccc(O)cc13)-c1cc3c(c(=O)n1C2)COC(=O)[C@]3(O)CC` + Nc1ccc(C#CCN(C(=O)Cc2ncc(C(F)(F)F)cc2C(F)(F)F)c2ccc(F)cc2)nn1, the IC50 (second compound 0.0316 µM) was > 1 µM, the IC50 (second compound 0.1 µM) was > 1 µM and the IC50 (second compound 0.316 µM) was > 1 µM. For the same compound, the IC50 (second compound 1 µM) was > 1 µM, the IC50 (second compound 3.16 µM) was > 1 µM and the IC50 (second compound 10 µM) was > 1 µM. For the same compound, the viability, T/C (second compound 0.0316 µM, first compound 0.00316 µM) was 94.8%, the viability, T/C (second compound 0.0316 µM, first compound 0.01 µM) was 85.3% and the viability, T/C [1] was 81.9%. For the same compound, the viability, T/C [2] was 75.5%, the viability, T/C [3] was 76.8% and the viability, T/C [4] was 63.9%. For the same compound, the viability, T/C (second compound 0.1 µM, first compound 0.00316 µM) was 89.7%, the viability, T/C (second compound 0.1 µM, first compound 0.01 µM) was 85.5% and the viability, T/C [5] was 72.2%. It also gave a viability, T/C [6] of 77.2%, a viability, T/C [7] of 68.7% and a viability, T/C [8] of 57.9%. It also gave a viability, T/C (second compound 0.316 µM, first compound 0.00316 µM) of 108%, a viability, T/C (second compound 0.316 µM, first compound 0.01 µM) of 81.7% and a viability, T/C [9] of 69.5%. It also gave a viability, T/C [10] of 79%, a viability, T/C [11] of 71% and a viability, T/C [12] of 58.5%. The viability, T/C (second compound 1 µM, first compound 0.00316 µM) was 111%, the viability, T/C (second compound 1 µM, first compound 0.01 µM) was 85.3% and the viability, T/C [13] was 73.9%. For the same compound, the viability, T/C [14] was 79.5%, the viability, T/C [15] was 63.6% and the viability, T/C [16] was 55.6%. The viability, T/C (second compound 3.16 µM, first compound 0.00316 µM) was 97.6%, the viability, T/C (second compound 3.16 µM, first compound 0.01 µM) was 84.1% and the viability, T/C [17] was 81.9%. The viability, T/C [18] was 72.3%, the viability, T/C [19] was 72.9% and the viability, T/C [20] was 59.9%. The viability, T/C (second compound 10 µM, first compound 0.00316 µM) was 96.4%, the viability, T/C (second compound 10 µM, first compound 0.01 µM) was 73.2% and the viability, T/C [21] was 68.7%. The viability, T/C [22] was 71.1%, the viability, T/C [23] was 61.9% and the viability, T/C [24] was 61.5%.
`CC(C)n1c(=O)n(C)c2cnc3cc(F)c(-c4ccc(OCCCN5CCCCC5)nc4)cc3c21` + COC1C(OC(N)=O)C(O)C(Oc2ccc3c(O)c(NC(=O)c4ccc(O)c(CC=C(C)C)c4)c(=O)oc3c2C)OC1(C)C was tested, and the IC50 (second compound 0.0316 µM) was > 10 µM, the IC50 (second compound 0.1 µM) was > 10 µM and the IC50 (second compound 0.316 µM) was > 10 µM. For the same compound, the IC50 (second compound 1 µM) was > 10 µM, the IC50 (second compound 3.16 µM) was > 10 µM and the IC50 (second compound 10 µM) was > 10 µM. The viability, T/C [1] was 145%, the viability, T/C [2] was 129% and the viability, T/C [3] was 109%. The viability, T/C [4] was 126%, the viability, T/C (second compound 0.0316 µM, first compound 3.16 µM) was 112% and the viability, T/C (second compound 0.0316 µM, first compound 10 µM) was 111%. It also gave a viability, T/C [5] of 113%, a viability, T/C [6] of 127% and a viability, T/C [7] of 128%. The viability, T/C [8] was 131%, the viability, T/C (second compound 0.1 µM, first compound 3.16 µM) was 112% and the viability, T/C (second compound 0.1 µM, first compound 10 µM) was 91.2%. It also gave a viability, T/C [9] of 121%, a viability, T/C [10] of 147% and a viability, T/C [11] of 117%. For the same compound, the viability, T/C [12] was 121%, the viability, T/C (second compound 0.316 µM, first compound 3.16 µM) was 114% and the viability, T/C (second compound 0.316 µM, first compound 10 µM) was 110%. The viability, T/C [13] was 113%, the viability, T/C [14] was 111% and the viability, T/C [15] was 132%. The viability, T/C [16] was 107%, the viability, T/C (second compound 1 µM, first compound 3.16 µM) was 112% and the viability, T/C (second compound 1 µM, first compound 10 µM) was 82.9%. The viability, T/C [17] was 112%, the viability, T/C [18] was 130% and the viability, T/C [19] was 116%. It also gave a viability, T/C [20] of 118%, a viability, T/C (second compound 3.16 µM, first compound 3.16 µM) of 123% and a viability, T/C (second compound 3.16 µM, first compound 10 µM) of 102%. For the same compound, the viability, T/C [21] was 126%, the viability, T/C [22] was 128% and the viability, T/C [23] was 139%. The viability, T/C [24] was 128%, the viability, T/C (second compound 10 µM, first compound 3.16 µM) was 135% and the viability, T/C (second compound 10 µM, first compound 10 µM) was 115%.
